In brackets after ≈: the same amount, converted by molar mass.
Legend:
Oxytocin receptor = target: T1, Oxytocin receptor (Homo sapiens, UniProt P30559); experiment: Displacement of [3H]oxytocin from human oxytocin receptor
T1 sequence (P30559 whole entry): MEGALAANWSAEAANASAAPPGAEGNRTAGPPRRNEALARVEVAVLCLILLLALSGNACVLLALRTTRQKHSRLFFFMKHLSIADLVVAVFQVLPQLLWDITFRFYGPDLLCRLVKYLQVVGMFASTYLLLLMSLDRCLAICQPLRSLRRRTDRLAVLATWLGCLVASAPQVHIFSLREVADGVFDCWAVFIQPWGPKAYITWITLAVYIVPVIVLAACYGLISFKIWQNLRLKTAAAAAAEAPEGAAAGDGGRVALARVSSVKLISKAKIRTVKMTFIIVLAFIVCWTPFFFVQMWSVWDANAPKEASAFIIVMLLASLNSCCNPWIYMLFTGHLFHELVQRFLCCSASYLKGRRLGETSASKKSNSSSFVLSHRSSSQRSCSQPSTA

[1] = AUC in rat at 5 mg/kg, po; format: ADME, organism-based; set-up: dose 5 mg/kg, route oral; settings: plasma
[2] = Clearance in rat at 5 mg/kg; format: ADME, organism-based; set-up: dose 5 mg/kg; settings: in vivo
[3] = AUC in dog at 0.6 mg/kg, po; format: ADME, organism-based, Canis lupus familiaris; set-up: dose 0.6 mg/kg, route oral; settings: plasma
[4] = Clearance in dog at 0.6 mg/kg; format: ADME, organism-based, Canis lupus familiaris; set-up: dose 0.6 mg/kg; settings: in vivo
[5] = Lipophilicity, log D of the compound by HPLC analysis; format: physicochemical
serum albumin [6] = target: serum albumin (Homo sapiens, UniProt P02768); experiment: Binding affinity to human serum albumin; format: ADME; settings: read-out: PB (converted)
serum albumin [7] = target: serum albumin (Rattus norvegicus, UniProt P02770); experiment: Binding affinity to rat serum albumin; format: ADME; settings: read-out: PB (converted)
Liver microsomes [8] = experiment: Intrinsic clearance in rat liver microsomes; format: ADME, Microsome
Liver = experiment: Intrinsic clearance in dog liver microsomes; format: ADME, Canis lupus familiaris, Microsome
[9] = Intrinsic clearance in cynomolgus monkey liver microsomes; format: ADME, Macaca fascicularis, Microsome
Liver microsomes [10] = experiment: Intrinsic clearance in human liver microsomes; format: ADME, Microsome
Vasopressin V1a receptor = Vasopressin V1a receptor (Homo sapiens, UniProt P37288); experiment: Displacement of [3H]vasopressin from human vasopressin V1a receptor
Vasopressin V1b receptor = target: T2, Vasopressin V1b receptor (Homo sapiens, UniProt P47901); experiment: Displacement of [3H]vasopressin from human vasopressin V1b receptor
T2 sequence (P47901 whole entry): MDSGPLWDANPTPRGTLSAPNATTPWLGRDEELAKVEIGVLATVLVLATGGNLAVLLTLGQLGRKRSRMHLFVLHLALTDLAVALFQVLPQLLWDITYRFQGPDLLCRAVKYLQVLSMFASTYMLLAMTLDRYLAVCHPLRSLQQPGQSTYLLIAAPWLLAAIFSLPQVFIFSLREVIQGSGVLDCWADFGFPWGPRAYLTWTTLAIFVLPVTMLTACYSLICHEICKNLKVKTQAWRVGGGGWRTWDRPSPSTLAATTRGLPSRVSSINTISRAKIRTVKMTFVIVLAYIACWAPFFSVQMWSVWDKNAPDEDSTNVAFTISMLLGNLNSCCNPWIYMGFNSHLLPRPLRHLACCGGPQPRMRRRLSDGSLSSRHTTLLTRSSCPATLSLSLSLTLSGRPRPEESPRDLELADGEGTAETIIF

Vasopressin V2 receptor = Vasopressin V2 receptor (Homo sapiens, UniProt P30518); experiment: Displacement of [3H]vasopressin from human vasopressin V2 receptor
Cytochrome P450 1A2 = target: T3, Cytochrome P450 1A2 (Homo sapiens, UniProt P05177); experiment: Inhibition of human CYP1A2; format: ADME
T3 sequence (P05177 whole entry): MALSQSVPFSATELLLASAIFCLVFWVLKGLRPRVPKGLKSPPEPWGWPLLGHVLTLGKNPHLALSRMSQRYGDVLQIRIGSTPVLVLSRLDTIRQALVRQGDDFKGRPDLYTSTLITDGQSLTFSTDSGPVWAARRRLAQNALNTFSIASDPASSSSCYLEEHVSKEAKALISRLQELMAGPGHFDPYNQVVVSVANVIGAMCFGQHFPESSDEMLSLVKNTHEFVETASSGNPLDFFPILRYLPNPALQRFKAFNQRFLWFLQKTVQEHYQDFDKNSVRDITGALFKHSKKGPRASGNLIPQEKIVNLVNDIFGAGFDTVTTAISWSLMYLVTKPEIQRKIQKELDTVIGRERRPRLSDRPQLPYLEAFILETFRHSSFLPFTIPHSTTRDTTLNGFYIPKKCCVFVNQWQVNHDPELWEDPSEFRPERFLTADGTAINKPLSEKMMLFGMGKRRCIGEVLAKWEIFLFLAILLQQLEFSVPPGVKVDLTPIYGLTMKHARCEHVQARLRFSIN

Cytochrome P450 2C9 = Cytochrome P450 2C9 (Homo sapiens, UniProt P11712); experiment: Inhibition of human CYP2C9; format: ADME
Cytochrome P450 2C19 = Cytochrome P450 2C19 (Homo sapiens, UniProt P33261); experiment: Inhibition of human CYP2C19; format: ADME
Cytochrome P450 2D6 = Cytochrome P450 2D6 (Homo sapiens, UniProt P10635); experiment: Inhibition of human CYP2D6; format: ADME
Cytochrome P450 3A4 [11] = target: T4, Cytochrome P450 3A4 (Homo sapiens, UniProt P08684); experiment: Inhibition of human CYP3A4 using diethoxyfluorescein as substrate; format: ADME
Cytochrome P450 3A4 [12] = target: T4, Cytochrome P450 3A4; experiment: Inhibition of human CYP3A4 using 7-benzyloxyquinoline as substrate; format: ADME
[13] = AUC in cynomolgus monkey at 2 mg/kg, po; format: ADME, organism-based, Macaca fascicularis; set-up: dose 2 mg/kg, route oral; settings: plasma
[14] = Clearance in cynomolgus monkey at 2 mg/kg; format: ADME, organism-based, Macaca fascicularis; set-up: dose 2 mg/kg; settings: in vivo
[15] = Oral bioavailability in cynomolgus monkey at 2 mg/kg; format: ADME, organism-based, Macaca fascicularis; settings: in vivo
[16] = Oral bioavailability in rat at 5 mg/kg; format: ADME, organism-based; settings: in vivo
[17] = Oral bioavailability in dog at 0.6 mg/kg; format: ADME, organism-based, Canis lupus familiaris; settings: in vivo
[18] = Aqueous solubility of the compound by HPLC analysis; format: physicochemical
Rattus norvegicus [19] = experiment: Reduction of oxytocin-induced uterine contraction in iv dosed rat uterine contractility model; format: functional, organism-based
Salmonella typhimurium = experiment: Genotoxicity in Salmonella typhimurium by high-throughput fluctuation test/mini-Ames assay; format: toxicity, organism-based; settings: salmonella enterica subsp. enterica serovar typhimurium
Rattus norvegicus [20] = experiment: Toxicity in Sprague-Dawley rat assessed as reduction in body weight at 100 mg/kg/day, po for 7 days; format: organism-based; set-up: route oral; settings: in vivo, 168 h
Rattus norvegicus [21] = experiment: Toxicity in Sprague-Dawley rat assessed as reduction in food intake at 100 mg/kg/day, po for 7 days; format: organism-based; set-up: route oral; settings: in vivo, 168 h
Rattus norvegicus [22] = experiment: Toxicity in Sprague-Dawley rat assessed as adverse clinical signs at 100 mg/kg/day, po for 7 days; format: organism-based; set-up: route oral; settings: in vivo, 168 h
Rattus norvegicus [23] = experiment: Toxicity in Sprague-Dawley rat assessed as adverse histological findings at 100 mg/kg/day, po for 7 days; format: organism-based; set-up: route oral; settings: in vivo, 168 h
[24] = Dissociation constant, pKa of the compound in aqueous solution; format: physicochemical
[25] = Lipophilicity, log D of the compound at pH 7.4; format: physicochemical; settings: buffer
[26] = Solubility of the compound in water; format: physicochemical
[27] = Chemical stability of the compound up to 3 months at 50 degC; format: physicochemical
[28] = Chemical stability of the compound in aqueous solution at pH 2 to 6 up to 7 days in presence of light; format: physicochemical; settings: buffer, pH 2, 168 h
[29] = Half life in rat; format: ADME, organism-based; settings: in vivo

T4 sequence (P08684 whole entry): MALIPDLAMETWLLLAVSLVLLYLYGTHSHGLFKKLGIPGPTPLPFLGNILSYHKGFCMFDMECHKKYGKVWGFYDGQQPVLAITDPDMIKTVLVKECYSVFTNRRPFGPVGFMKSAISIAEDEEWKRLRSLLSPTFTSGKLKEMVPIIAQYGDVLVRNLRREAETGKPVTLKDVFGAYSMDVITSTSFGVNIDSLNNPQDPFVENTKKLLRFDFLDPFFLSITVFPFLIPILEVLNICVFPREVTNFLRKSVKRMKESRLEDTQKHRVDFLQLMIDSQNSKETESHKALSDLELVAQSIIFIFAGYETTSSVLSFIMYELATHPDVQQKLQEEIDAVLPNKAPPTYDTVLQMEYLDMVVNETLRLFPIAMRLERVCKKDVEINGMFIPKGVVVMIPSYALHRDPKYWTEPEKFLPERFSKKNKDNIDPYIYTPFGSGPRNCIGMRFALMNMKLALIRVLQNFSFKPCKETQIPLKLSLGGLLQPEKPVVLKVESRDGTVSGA
Vasopressin V1a receptor, sequence (P37288 whole entry): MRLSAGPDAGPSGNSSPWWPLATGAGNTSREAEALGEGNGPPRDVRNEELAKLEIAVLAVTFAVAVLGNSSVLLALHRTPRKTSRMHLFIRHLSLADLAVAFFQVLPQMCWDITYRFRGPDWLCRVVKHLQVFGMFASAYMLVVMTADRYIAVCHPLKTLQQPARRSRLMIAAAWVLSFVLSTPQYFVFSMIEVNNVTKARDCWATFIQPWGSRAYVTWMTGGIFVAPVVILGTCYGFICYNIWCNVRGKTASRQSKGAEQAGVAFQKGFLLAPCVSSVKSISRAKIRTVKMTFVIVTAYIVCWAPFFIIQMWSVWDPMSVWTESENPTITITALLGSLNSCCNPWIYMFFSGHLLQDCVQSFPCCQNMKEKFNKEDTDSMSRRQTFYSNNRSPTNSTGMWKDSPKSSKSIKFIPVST
Cytochrome P450 2D6, sequence (P10635 whole entry): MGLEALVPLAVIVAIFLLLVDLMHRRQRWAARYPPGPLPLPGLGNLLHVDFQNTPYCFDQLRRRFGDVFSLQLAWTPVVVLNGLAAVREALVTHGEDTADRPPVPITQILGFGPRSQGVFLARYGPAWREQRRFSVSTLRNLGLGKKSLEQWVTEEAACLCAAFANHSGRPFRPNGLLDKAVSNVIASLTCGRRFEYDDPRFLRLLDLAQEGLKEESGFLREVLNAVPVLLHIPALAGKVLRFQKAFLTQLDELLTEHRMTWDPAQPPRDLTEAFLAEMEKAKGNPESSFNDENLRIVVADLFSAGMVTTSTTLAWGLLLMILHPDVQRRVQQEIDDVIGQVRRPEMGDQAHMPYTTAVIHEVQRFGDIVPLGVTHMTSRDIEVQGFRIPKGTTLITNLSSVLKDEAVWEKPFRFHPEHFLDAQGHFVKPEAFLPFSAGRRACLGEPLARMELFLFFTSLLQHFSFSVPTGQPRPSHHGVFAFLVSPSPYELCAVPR
Cytochrome P450 2C9, sequence (P11712 whole entry): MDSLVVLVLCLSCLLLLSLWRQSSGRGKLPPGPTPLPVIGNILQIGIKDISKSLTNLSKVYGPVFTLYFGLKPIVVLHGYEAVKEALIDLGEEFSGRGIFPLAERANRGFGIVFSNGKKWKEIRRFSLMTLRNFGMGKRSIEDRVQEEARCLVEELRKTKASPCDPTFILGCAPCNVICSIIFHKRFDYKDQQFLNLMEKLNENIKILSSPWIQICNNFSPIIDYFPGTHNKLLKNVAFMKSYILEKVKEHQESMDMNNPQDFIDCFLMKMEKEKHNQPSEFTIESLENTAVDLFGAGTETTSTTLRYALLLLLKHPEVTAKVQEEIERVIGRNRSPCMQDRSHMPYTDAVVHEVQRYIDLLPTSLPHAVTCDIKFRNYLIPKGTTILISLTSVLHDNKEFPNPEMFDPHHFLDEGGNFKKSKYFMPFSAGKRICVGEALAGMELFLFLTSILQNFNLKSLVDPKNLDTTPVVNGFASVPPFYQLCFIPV
Vasopressin V2 receptor, sequence (P30518 whole entry): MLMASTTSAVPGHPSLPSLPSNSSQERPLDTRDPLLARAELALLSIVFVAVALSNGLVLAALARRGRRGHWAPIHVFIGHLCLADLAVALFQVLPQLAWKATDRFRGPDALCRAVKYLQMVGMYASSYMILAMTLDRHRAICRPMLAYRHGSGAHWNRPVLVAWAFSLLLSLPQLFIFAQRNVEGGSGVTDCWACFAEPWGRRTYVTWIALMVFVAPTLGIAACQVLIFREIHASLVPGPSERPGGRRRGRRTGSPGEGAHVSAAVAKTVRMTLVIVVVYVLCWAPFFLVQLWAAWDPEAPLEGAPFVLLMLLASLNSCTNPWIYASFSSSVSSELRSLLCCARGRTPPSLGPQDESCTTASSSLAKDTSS
Cytochrome P450 2C19, sequence (P33261 whole entry): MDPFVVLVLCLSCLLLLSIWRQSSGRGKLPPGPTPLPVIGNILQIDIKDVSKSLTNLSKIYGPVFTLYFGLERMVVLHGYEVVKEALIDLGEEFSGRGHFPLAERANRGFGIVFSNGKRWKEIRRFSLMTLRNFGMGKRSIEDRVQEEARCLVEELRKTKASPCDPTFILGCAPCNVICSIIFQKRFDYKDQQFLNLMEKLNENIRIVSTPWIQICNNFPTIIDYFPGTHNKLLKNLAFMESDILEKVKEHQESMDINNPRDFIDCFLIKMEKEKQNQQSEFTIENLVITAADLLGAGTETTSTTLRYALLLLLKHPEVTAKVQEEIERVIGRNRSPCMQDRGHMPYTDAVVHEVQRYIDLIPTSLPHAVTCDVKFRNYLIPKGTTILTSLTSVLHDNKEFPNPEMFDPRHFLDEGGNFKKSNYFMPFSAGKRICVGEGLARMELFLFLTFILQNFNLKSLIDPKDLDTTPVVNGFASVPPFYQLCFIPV
serum albumin (Homo sapiens, UniProt P02768), sequence (P02768 whole entry): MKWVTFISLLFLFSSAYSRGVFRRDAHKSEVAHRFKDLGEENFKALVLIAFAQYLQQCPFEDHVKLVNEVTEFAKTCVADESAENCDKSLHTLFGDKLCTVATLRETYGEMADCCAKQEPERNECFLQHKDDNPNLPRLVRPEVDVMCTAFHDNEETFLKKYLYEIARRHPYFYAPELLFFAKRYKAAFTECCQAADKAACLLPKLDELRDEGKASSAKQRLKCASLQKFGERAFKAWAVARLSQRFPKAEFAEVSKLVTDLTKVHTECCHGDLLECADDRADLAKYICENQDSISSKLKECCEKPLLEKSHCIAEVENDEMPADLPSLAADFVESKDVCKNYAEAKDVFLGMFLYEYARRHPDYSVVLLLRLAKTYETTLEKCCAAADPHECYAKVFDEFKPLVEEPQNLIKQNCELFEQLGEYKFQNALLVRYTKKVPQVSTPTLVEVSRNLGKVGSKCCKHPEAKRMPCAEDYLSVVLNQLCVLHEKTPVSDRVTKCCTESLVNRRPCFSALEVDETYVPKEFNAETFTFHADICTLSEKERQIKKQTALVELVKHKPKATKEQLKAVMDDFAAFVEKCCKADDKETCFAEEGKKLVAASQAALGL
serum albumin (Rattus norvegicus, UniProt P02770), sequence (P02770 whole entry): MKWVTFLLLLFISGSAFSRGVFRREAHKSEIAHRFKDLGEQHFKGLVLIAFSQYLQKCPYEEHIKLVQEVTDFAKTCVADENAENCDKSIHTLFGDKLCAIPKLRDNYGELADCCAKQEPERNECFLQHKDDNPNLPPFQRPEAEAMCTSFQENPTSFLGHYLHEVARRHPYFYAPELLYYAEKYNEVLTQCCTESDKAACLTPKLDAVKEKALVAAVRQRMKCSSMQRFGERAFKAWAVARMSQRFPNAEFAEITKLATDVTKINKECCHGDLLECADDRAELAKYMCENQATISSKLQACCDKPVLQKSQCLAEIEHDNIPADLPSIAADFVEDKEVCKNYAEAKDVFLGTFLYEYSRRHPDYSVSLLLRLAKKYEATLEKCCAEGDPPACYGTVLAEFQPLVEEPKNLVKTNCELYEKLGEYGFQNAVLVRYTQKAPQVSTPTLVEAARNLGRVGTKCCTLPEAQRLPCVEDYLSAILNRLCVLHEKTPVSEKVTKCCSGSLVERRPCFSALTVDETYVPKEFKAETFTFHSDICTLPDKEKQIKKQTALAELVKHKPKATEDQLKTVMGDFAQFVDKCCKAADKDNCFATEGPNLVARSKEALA

Ki (Oxytocin receptor) [nM]	AUC [1] [ng·h/mL]	clearance [2] [mL/min/kg]	AUC [3] [ng·h/mL]	clearance [4] [mL/min/kg]	logD [5]	fraction unbound (serum albumin [6])	CLH (Liver microsomes [8]) [mL/min/g]	CLH (Liver) [mL/min/g]	CLH [9] [mL/min/g]	CLH (Liver microsomes [10]) [mL/min/g]	Ki (Vasopressin V1a receptor) [µM]	Ki (Vasopressin V1b receptor) [µM]	Ki (Vasopressin V2 receptor) [µM]	IC50 (Cytochrome P450 1A2) [µM]	IC50 (Cytochrome P450 2C9) [µM]	IC50 (Cytochrome P450 2C19) [µM]	IC50 (Cytochrome P450 2D6) [µM]	IC50 (Cytochrome P450 3A4 [11]) [µM]	IC50 (Cytochrome P450 3A4 [12]) [µM]	Structure (SMILES)	other results
0.0794	2970	15	770	7	3.4	0.06	2	7	22	14	0.631	> 12.6	0.0398	> 100	12	38	66	5	31	CC(C)C[C@@H]1C(=O)N[C@H](C2Cc3ccccc3C2)C(=O)N1[C@@H](C(=O)N(C)C)c1ccc(F)cc1F	fraction unbound (serum albumin [7]): 0.01; AUC [13]: 16 ng·h/mL; clearance [14]: 24 mL/min/kg; bioavailability [15]: 1.5%
0.126	3450	13	69	19	2.2	0.3	< 1	< 1	4	5	> 6.31	> 7.94	3.98	> 100	> 100	> 100	> 100	> 100	> 100	CC[C@H](C)[C@@H]1C(=O)N[C@H](C2Cc3ccccc3C2)C(=O)N1[C@@H](C(=O)N1CCOCC1)c1ccc(C)nc1C [EPELSIBAN]	bioavailability [16]: 55%; bioavailability [17]: 13%; solubility [18]: 0.232 mg/mL (≈ 0.447 mM); IC50 (Rattus norvegicus [19]): 0.192 µM; Activity (Salmonella typhimurium): Non-toxic; Activity (Rattus norvegicus [20]): Non-toxic; Activity (Rattus norvegicus [21]): Non-toxic; Activity (Rattus norvegicus [22]): Non-toxic; Activity (Rattus norvegicus [23]): Non-toxic; pKa [24]: 5.78; logD [25]: 2.55; solubility [26]: 33 mg/mL (≈ 63.6 mM); Stability [27]: Stable; Stability [28]: Stable; AUC [13]: 116 ng·h/mL; clearance [14]: 26 mL/min/kg; bioavailability [15]: 7%; half-life [29]: 1.2 h

— ChEMBL document CHEMBL2034824, “Pyridyl-2,5-diketopiperazines as potent, selective, and orally bioavailable oxytocin antagonists: synthesis, pharmacokinetics, and in vivo potency” (J Med Chem, 2012)
